Marks after values point to notes of the source that are not given here. Starred links: 1 amine or outer side, 2 acyl side, 3 side chain; linkers in the order of their positions; H or OH if unused. Non-standard residues stand in square brackets, D forms with d. Residues, ends and D or L forms follow the SMILES beside them. X1 = CCC(N[*:1])C(C)C(=O)O[C@H](C(=O)[*:2])[C@@H](C)CC; X2 = C[C@H](N[*:1])C(=O)C(C)(C)C(=O)[*:2]; NMeY = CN[C@@H](Cc1ccc(O)cc1)C(=O)O; NMeI = CC[C@H](C)[C@H](NC)C(=O)O; NMeV = CN[C@H](C(=O)O)C(C)C
What was measured:
Candida albicans X657 = test: In vitro agar-diffusion test; assay type: cell-based
Method: (§1) The activity of scytophycin compounds against pathogenic fungi in standard in vitro agar-diffusion tests, using ¼"(6mm) discs holding ~30 µL of test solution, is illustrated in Tables 6-12.

Neurospora crassa X846 = test: In vitro agar-diffusion test; assay type: cell-based
Method: as §1

Pythium ultimum X751 = test: In vitro agar-diffusion test; assay type: cell-based
Method: as §1

[1] = tested on: Saccharomyces pastorianus X52; test: In vitro agar-diffusion test; assay type: cell-based; parameters: key: T = trace
Method: as §1

Rhizoctonia solani X767 = test: In vitro agar-diffusion test; assay type: cell-based; parameters: key: - = not active
Method: as §1

[2] = tested on: Sclerotina homoeocarpa X768; test: In vitro agar-diffusion test; assay type: cell-based; parameters: key: - = not active
Method: as §1

NIH/3T3 mouse fibroblast = test: Cytotoxicity, minimum toxic dose (method of Furusawa and Cutting); assay type: cell-based; conditions: NIH/3T3 mouse fibroblast cell line
Method: (§2) The scytophycin compounds are potent cytotoxins. For example, the minimum toxic doses of scytophycins A and B against KB human epidermoid carcinoma and NIH/3T3 mouse fibroblast cell lines were determined to be 1 ng/mL and 0.65 ng/mL, respectively, using methods described by E. Furusawa and W. Cutting in Ann. New York Acad. Sci. 173, 669-679 (1970).

[3] = tested on: KB human epidermoid carcinoma; test: as above; assay type: cell-based; conditions: KB human epidermoid carcinoma cell line
Method: as §2

Lewis Lung Carcinoma = test: Survival of mice with intraperitoneally implanted tumor; assay type: in vivo, BDF1 Mice; conditions: Lewis lung carcinoma, result in words
Method: (§3) Female hybrid BDF1 (DBA/2 x C57BL/6) mice were used for the evaluation of the scytophycins against the three tumors. The mice were first inoculated intraperitoneally with 10⁶ cells of P388 ascites leukemia (P388), 2 to 6 x 10⁵ cells of Lewis lung carcinoma (LLC) homogenate, or 0.3 mL of 20% homogenate of B16 tumor (B16) masses. Drug treatment was started the next day (day 1) and continued daily for 6-9 days.

[4] = tested on: P388 Lymphocytic Leukemia; test: as above; assay type: in vivo, BDF1 Mice
Method: as §3

B16 Melanoma = test: as above; assay type: in vivo, BDF1 Mice; conditions: B16 melanoma, result in words
Method: as §3

[5] = P388, 1 µg/Mouse, 8 days of treatment

Q: What does the source list for Scytophycin E?
A: Size of Zone of Inhibition (mm) (Candida albicans X657; Table 8, 0.33 mg/mL): 22 mm; Size of Zone of Inhibition (mm) (Candida albicans X657; Table 8, 1 mg/mL): 21 mm; Size of Zone of Inhibition (mm) (Neurospora crassa X846; Table 8, 0.33 mg/mL): 26 mm; Size of Zone of Inhibition (mm) (Neurospora crassa X846; Table 8, 1 mg/mL): 36 mm; Size of Zone of Inhibition (mm) (Pythium ultimum X751; Table 11, 0.33 mg/mL): 30 mm; Size of Zone of Inhibition (mm) (Pythium ultimum X751; Table 11, 1.0 mg/mL): 40 mm; Size of Zone of Inhibition (mm) ([1]; Table 8, 0.33 mg/mL): 18 mm; Size of Zone of Inhibition (mm) ([1]; Table 8, 1 mg/mL): 23 mm; Size of Zone of Inhibition (mm) (Rhizoctonia solani X767; Table 11, 0.33 mg/mL): 33 mm; Size of Zone of Inhibition (mm) (Rhizoctonia solani X767; Table 11, 0.33 mg/mL, second value of the cell, after the zone marked overgrowth): 15 mm; Size of Zone of Inhibition (mm) (Rhizoctonia solani X767; Table 11, 1.0 mg/mL): 46 mm; Size of Zone of Inhibition (mm) (Rhizoctonia solani X767; Table 11, 1.0 mg/mL, second value of the cell, after the zone marked overgrowth): 25 mm; Size of Zone of Inhibition (mm) ([2]; Table 11, 0.33 mg/mL): 33 mm; Size of Zone of Inhibition (mm) ([2]; Table 11, 1.0 mg/mL): 35 mm

Q: Which “Size of Zone of Inhibition (mm)” value (Pythium ultimum X751; Table 10, 0.01 mg/mL) does the source give for `CCC1NC(=O)[C@H](C)NC(=O)C(C)(C)C(=O)[C@H](C)NC(=O)[C@H](Cc2ccc(OC)cc2)N(C)C(=O)[C@H](C(C)C)N(C)C(=O)CNC(=O)[C@H]([C@@H](C)CC)N(C)C(=O)CNC(=O)[C@H]([C@@H](C)CC)OC(=O)C1C` (some centres unmarked) [Majusculamide C, reference compound] (cyclo(A[X1]G[NMeI]G[NMeV][NMeY](Me)[X2])) here?
A: The value was 10^a mm.

Q: What about the “Size of Zone of Inhibition (mm)” value (Pythium ultimum X751; Table 10, 0.1 mg/mL) of the same compound?
A: Its value is 18 mm.

Q: What about the “Size of Zone of Inhibition (mm)” value (Pythium ultimum X751; Table 10, 1.0 mg/mL) of the same compound?
A: The value was greater than 30 mm.

Q: And the “Size of Zone of Inhibition (mm)” value (Rhizoctonia solani X767; Table 10, 0.01 mg/mL)?
A: The value was “-”.

Q: And the “Size of Zone of Inhibition (mm)” value (Rhizoctonia solani X767; Table 10, 0.1 mg/mL)?
A: The value was “-”.

Q: What about the “Size of Zone of Inhibition (mm)” value (Rhizoctonia solani X767; Table 10, 1.0 mg/mL) of the same compound?
A: Its value is 20^a mm.

Q: What about the “Size of Zone of Inhibition (mm)” value ([2]; Table 10, 0.01 mg/mL) of the same compound?
A: Its value is “-”.

Q: And the “Size of Zone of Inhibition (mm)” value ([2]; Table 10, 0.1 mg/mL)?
A: Its value is “-”.

Q: What about the “Size of Zone of Inhibition (mm)” value ([2]; Table 10, 1.0 mg/mL) of the same compound?
A: Its value is 17 mm.

Q: For Scytophycin A, which minimum toxic dose (NIH/3T3 mouse fibroblast) is on record?
A: The minimum toxic dose was 1 ng/mL.

Q: And the minimum toxic dose [3]?
A: The minimum toxic dose was 1 ng/mL.

Q: What about the “activity against intraperitoneally implanted tumor” value (“activity” below) (Lewis Lung Carcinoma) of the same compound?
A: Its value is “moderate activity”.

Q: And the “% T/C” value [4, 5]?
A: The value was 125%.

Q: What about the “Mean Survival Time, Days Treated” value [4, 5] of the same compound?
A: The value was 10.0 days.

Q: What about the “activity” value ([4]; P388 lymphocytic leukemia, result in words) of the same compound?
A: The value was “moderate activity”.

Q: And the “activity” value (B16 Melanoma)?
A: Its value is “did not exhibit activity”.

Q: What about the “inhibition of fungal pathogen” value (Candida albicans X657; Candida albicans, general statement in words) of the same compound?
A: Its value is “inhibit”.

Q: And the “Size of Zone of Inhibition (mm)” value (Candida albicans X657; Table 7, 0.01 mg/mL)?
A: The value was 12 mm.

Q: What about the “Size of Zone of Inhibition (mm)” value (Candida albicans X657; Table 7, 0.1 mg/mL) of the same compound?
A: Its value is 19 mm.

Q: What about the “Size of Zone of Inhibition (mm)” value (Candida albicans X657; Table 7, 1 mg/mL) of the same compound?
A: Its value is 23 mm.

Q: And the “Size of Zone of Inhibition (mm)” value (Neurospora crassa X846; Table 7, 0.01 mg/mL)?
A: Its value is 18 mm.

Q: What about the “Size of Zone of Inhibition (mm)” value (Neurospora crassa X846; Table 7, 0.1 mg/mL) of the same compound?
A: Its value is 25 mm.

Q: What about the “Size of Zone of Inhibition (mm)” value (Neurospora crassa X846; Table 7, 1 mg/mL) of the same compound?
A: Its value is 30 mm.

Q: And the “Zone of Inhibition Size” value (Pythium ultimum X751; Table 6, level 1 mg/mL)?
A: The value was 37 mm.

Q: And the “Size of Zone of Inhibition (mm)” value (Pythium ultimum X751; Table 10, 0.01 mg/mL)?
A: Its value is 20 mm.

Q: And the “Size of Zone of Inhibition (mm)” value (Pythium ultimum X751; Table 10, 0.1 mg/mL)?
A: The value was greater than 30 mm.

Q: And the “Size of Zone of Inhibition (mm)” value (Pythium ultimum X751; Table 10, 1.0 mg/mL)?
A: Its value is greater than 30 mm.

Q: What about the “Size of Zone of Inhibition (mm)” value ([1]; Table 7, 0.01 mg/mL) of the same compound?
A: Its value is “T^a”.

Q: What about the “Size of Zone of Inhibition (mm)” value ([1]; Table 7, 0.1 mg/mL) of the same compound?
A: The value was 17 mm.

Q: And the “Size of Zone of Inhibition (mm)” value ([1]; Table 7, 1 mg/mL)?
A: The value was 24 mm.

Q: And the “Size of Zone of Inhibition (mm)” value (Rhizoctonia solani X767; Table 10, 0.01 mg/mL)?
A: Its value is 13 mm.

Q: What about the “Size of Zone of Inhibition (mm)” value (Rhizoctonia solani X767; Table 10, 0.1 mg/mL) of the same compound?
A: The value was 23 mm.

Q: What about the “Size of Zone of Inhibition (mm)” value (Rhizoctonia solani X767; Table 10, 1.0 mg/mL) of the same compound?
A: Its value is 30 mm.

Q: And the “Size of Zone of Inhibition (mm)” value ([2]; Table 10, 0.01 mg/mL)?
A: Its value is 20 mm.

Q: What about the “Size of Zone of Inhibition (mm)” value ([2]; Table 10, 0.1 mg/mL) of the same compound?
A: Its value is 30 mm.

Q: And the “Size of Zone of Inhibition (mm)” value ([2]; Table 10, 1.0 mg/mL)?
A: Its value is greater than 30 mm.
